Activity calls are given as the source filed them.
Tests used:
[1] = Shn3 3'UTR reporter inhibitors, dose response, cell-based, Clone20 osteoblasts, firefly luciferase, cherry-picked (AID 624132); format: functional;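 note: firefly luciferase luminescence from reporter carrying the Shn3 3'UTR in osteoblasts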
[2] = HepG2 cell cytotoxicity, dose response, cytotoxicity control for Shn3 inhibitor project, CellTiter-Glo, cherry-picked (AID 624134); format: functional, cell-based
[3] = control 3'UTR Renilla luciferase suppression, dose response, counter-screen for Shn3 inhibitor project, cell-based, Clone20-Shn3RL, cherry-picked (AID 624133); format: functional
H9c2 = assay: cells; format: functional, cell-based; settings: Rattus norvegicus, H9c2, Myocardium;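 note: confirmatory concentration-response retest of ultra-high-throughput screening hits for modulation of myocardial damage; cell death induced by hydrogen peroxide oxidative stress; compound pretreatment for 60 min then peroxide exposure for 2 h; potency is for protecting the cells against peroxide damage rather than for killing them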
Paired box protein Pax-8 = Paired box protein Pax-8 (Homo sapiens, UniProt Q06710); assay: inhibitors of PAX8-driven TPO luciferase reporter, dose response, RMG-I cells, cherry-pick (AID 687027); format: functional, cell-based;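 note: luciferase reporter driven by Pax8 target thyroperoxidase promoter measured by SteadyGlo luminescence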
Cytochrome P450 2D6 = Cytochrome P450 2D6 (Homo sapiens, UniProt P10635);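 note: CYP2D6 member of a cytochrome P450 panel assay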
Cytochrome P450 1A2 = molecular target: T1, Cytochrome P450 1A2 (Homo sapiens, UniProt P05177);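 note: PubChem cytochrome P450 panel assay, CYP1A2 panel member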
T1 sequence (P05177 whole entry): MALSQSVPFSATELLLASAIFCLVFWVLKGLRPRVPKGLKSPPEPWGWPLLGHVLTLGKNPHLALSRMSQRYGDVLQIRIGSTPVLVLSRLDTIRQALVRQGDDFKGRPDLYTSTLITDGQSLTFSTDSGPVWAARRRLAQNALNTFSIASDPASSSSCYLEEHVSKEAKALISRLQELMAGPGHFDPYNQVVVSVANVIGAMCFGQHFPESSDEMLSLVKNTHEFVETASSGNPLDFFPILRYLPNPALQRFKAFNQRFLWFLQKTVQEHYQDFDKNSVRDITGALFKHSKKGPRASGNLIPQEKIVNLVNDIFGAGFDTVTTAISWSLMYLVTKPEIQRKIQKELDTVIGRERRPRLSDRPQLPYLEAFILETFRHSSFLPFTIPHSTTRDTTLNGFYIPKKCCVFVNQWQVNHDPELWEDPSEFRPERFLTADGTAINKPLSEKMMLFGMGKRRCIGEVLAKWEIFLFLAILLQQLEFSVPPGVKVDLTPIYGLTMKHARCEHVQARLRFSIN

Cytochrome P450 3A4 = Cytochrome P450 3A4 (Homo sapiens, UniProt P08684);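 note: CYP3A4 tested as one member of a cytochrome P450 panel screen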
Cytochrome P450 2C9 = Cytochrome P450 2C9 (Homo sapiens, UniProt P11712)
[4] = NIH-3T3 fibroblast cytotoxicity, dose response, cytotoxicity control, cell-based, fluorescence, Alamar Blue, secondary assay (AID 2327); format: functional;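 note: NIH-3T3 mouse fibroblasts cultured with fluconazole at 8 µg/mL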
[5] = C. albicans growth with fluconazole, confirmation, fluorescence, retest (AID 2467); format: functional, cell-based
HeLa = assay: HeLa cell cytotoxicity, dose response, cytotoxicity control for MITF activator project, CellTiter-Glo luminescence, cherry-pick samples (AID 540259); format: functional, cell-based; settings: Homo sapiens
[6] = inhibitors of intracellular T. cruzi replication, confirmation, NIH3T3 host cells, beta-gal luminescence (AID 2044); format: functional, cell-based;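 note: intracellular parasites grown in NIH/3T3 mouse fibroblasts as host cells; luminescent beta-galactosidase reporter signal from transgenic T. cruzi replicating inside host cells; inhibitors lower the luminescence signal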
[7] = cytotoxicity toward NIH3T3 fibroblasts, dose response, counter-screen, cell-based, ATP luminescence, mouse fibroblasts (AID 2010); format: functional;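 note: cells exposed to compound for about 90 hours before reading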
Genome polyprotein = Genome polyprotein (dengue virus type 2, UniProt P29990); assay: Dengue-2 NS5 methyltransferase inhibitors, primary screen, biochemical, confirmation dose response (AID 588689); format: functional
Nonstructural protein 1 = Nonstructural protein 1 (Influenza A virus, UniProt Q194T2); format: functional, Influenza A virus (A/California/07/2009(H1N1))
Cytochrome P450 2C19 = Cytochrome P450 2C19 (Homo sapiens, UniProt P33261); assay: Cytochrome panel assay with activity outcomes. Panel member name: p450-cyp2c19 Compounds with AC50 equal or less than 10 uM are considered active; format: functional; settings: read-out: AC50
Cytochrome P450 2C19, sequence (P33261 whole entry): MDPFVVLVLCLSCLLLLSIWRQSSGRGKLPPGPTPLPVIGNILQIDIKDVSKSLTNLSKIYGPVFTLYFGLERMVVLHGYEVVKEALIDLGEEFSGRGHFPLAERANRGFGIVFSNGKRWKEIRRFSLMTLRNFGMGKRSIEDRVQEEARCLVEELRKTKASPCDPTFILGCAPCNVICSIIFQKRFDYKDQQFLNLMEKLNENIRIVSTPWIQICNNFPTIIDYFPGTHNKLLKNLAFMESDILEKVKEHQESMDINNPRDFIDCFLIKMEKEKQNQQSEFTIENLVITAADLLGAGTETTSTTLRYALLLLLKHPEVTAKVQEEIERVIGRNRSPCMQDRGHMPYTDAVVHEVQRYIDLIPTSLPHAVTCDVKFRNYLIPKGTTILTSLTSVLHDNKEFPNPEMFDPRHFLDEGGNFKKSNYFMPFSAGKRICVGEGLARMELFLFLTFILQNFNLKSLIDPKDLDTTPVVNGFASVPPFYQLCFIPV

Nonstructural protein 1, sequence (Q194T2 whole entry): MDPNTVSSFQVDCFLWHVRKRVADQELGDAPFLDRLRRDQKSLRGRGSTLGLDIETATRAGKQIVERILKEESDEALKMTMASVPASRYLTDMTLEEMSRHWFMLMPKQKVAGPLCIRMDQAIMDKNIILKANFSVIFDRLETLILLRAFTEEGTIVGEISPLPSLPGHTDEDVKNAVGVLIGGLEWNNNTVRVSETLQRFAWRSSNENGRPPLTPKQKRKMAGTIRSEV
Genome polyprotein, sequence (P29990 2492-3391 limits assumed): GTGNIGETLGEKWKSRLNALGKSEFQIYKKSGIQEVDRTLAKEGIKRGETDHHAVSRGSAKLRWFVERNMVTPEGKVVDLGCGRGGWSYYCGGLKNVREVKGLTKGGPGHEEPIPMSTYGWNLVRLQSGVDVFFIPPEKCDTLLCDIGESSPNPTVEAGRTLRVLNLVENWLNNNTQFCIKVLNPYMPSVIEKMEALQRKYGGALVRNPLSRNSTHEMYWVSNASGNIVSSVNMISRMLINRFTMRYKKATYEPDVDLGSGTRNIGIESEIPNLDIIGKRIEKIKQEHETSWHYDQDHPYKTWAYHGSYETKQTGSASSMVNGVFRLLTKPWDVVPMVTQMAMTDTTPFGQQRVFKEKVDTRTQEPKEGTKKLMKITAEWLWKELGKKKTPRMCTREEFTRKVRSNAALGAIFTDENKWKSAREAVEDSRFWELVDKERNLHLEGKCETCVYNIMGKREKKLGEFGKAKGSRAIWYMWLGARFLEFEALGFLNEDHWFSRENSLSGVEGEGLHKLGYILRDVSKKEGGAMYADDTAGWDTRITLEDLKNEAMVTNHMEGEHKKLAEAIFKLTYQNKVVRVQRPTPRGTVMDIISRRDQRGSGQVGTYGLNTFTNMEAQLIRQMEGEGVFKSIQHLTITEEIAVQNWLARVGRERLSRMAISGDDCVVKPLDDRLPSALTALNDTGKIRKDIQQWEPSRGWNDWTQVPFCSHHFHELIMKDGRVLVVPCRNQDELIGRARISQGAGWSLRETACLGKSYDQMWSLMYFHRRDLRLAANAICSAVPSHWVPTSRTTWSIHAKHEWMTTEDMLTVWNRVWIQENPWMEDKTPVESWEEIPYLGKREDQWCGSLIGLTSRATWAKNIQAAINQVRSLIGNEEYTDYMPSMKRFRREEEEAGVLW
Cytochrome P450 2D6, sequence (P10635 whole entry): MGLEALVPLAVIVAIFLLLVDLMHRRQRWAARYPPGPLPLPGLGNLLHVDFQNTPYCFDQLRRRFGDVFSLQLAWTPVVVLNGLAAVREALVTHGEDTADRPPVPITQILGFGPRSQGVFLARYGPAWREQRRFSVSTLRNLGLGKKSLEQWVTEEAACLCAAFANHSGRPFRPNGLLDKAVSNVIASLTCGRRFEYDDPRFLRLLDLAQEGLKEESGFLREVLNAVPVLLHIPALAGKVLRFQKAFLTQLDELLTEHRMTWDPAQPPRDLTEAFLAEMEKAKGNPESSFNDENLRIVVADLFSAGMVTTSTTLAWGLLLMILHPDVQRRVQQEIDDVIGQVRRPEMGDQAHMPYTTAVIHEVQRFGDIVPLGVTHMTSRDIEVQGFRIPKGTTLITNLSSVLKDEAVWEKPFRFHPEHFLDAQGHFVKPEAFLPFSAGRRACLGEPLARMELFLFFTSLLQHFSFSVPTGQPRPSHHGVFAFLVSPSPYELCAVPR
Cytochrome P450 2C9, sequence (P11712 whole entry): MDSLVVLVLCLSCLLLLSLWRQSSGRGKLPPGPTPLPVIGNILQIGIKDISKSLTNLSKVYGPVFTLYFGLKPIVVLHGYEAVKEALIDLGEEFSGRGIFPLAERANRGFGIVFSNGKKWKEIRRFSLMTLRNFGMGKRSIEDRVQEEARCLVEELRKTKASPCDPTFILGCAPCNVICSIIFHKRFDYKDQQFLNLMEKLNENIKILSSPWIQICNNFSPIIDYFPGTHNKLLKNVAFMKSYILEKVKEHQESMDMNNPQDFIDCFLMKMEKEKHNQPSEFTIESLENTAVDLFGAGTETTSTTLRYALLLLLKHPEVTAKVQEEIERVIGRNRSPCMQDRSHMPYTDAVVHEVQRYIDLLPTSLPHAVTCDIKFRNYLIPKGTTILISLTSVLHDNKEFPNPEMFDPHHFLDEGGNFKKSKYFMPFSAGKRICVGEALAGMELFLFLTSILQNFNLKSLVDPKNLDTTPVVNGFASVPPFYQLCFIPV
Cytochrome P450 3A4, sequence (P08684 whole entry): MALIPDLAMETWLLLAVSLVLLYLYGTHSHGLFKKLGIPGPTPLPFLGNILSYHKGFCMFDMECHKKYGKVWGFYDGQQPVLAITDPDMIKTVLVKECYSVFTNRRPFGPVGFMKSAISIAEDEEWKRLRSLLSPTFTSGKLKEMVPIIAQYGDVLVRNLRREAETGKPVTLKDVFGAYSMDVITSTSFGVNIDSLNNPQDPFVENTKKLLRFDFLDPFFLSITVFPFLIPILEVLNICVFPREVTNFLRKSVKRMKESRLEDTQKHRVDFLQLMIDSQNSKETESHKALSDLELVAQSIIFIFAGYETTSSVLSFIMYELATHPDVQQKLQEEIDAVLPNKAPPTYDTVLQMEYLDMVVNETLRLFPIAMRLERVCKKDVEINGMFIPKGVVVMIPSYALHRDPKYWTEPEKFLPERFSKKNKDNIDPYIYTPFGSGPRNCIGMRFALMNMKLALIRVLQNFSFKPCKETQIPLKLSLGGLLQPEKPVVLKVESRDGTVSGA
Paired box protein Pax-8, sequence (Q06710 whole entry): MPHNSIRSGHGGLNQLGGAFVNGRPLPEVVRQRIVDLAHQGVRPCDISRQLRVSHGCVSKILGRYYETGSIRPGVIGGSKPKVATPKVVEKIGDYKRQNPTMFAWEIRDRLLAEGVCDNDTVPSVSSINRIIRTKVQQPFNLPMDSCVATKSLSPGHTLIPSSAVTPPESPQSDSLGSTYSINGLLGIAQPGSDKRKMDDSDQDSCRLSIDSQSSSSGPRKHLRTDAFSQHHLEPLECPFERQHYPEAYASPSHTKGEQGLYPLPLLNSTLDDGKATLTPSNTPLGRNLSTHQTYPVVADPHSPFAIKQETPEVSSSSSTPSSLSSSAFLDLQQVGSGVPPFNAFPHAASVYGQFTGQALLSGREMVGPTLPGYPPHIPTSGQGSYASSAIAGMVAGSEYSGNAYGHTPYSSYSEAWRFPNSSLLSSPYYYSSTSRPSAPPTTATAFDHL

Q: Which results are given for `COc1ccc(C2/C=C\CN(S(=O)(=O)c3ccc(C)cc3)[C@H](Cc3ccccc3)C(=O)N2Cc2ccc(F)cc2)cc1` (some centres not stated)?
A: AC50 [1]: 12.9 µM (active); AC50 [2]: > 70 µM (inactive); AC50 [3]: 25.5 µM (active)

Q: With `COc1cc(-c2cnc3c(NC=O)cc(-c4cccc(NC(C)=O)c4)cn23)cc(OC)c1OC` as the compound, how does the IC50 (H9c2) read?
A: > 79 µM (inactive)

Q: What about the AC50 (Paired box protein Pax-8) of the same compound?
A: 2.88 µM (active)

Q: Which AC50 (Cytochrome P450 2D6) does the source give for `CCNc1ncc2nc(-c3cn(C)c4ccccc34)c(=O)n(-c3ccccc3)c2n1` here?
A: 25.1 µM (inconclusive)

Q: And the AC50 (Cytochrome P450 1A2)?
A: 15.8 µM (inconclusive)

Q: And the AC50 (Cytochrome P450 3A4)?
A: 6.31 µM (inconclusive)

Q: What about the AC50 (Cytochrome P450 2C9) of the same compound?
A: inconclusive

Q: What does the source list for `Cc1ccc(Nc2nc(Cl)nc(NC(C)(C)C)n2)cc1`?
A: EC50 [4]: > 160 µM (inactive); EC50 [5]: 1.98 µM (active); AC50 (HeLa): 159 µM (active)

Q: For `C=CS(=O)(=O)c1sc(Cl)c(N2CCOCC2)c1[N+](=O)[O-]`, which EC50 [6] is on record?
A: 5.42 µM (active)

Q: What about the EC50 [7] of the same compound?
A: 7.27 µM (active)

Q: And the IC50 (Genome polyprotein)?
A: 11 µM (active)

Q: What about the AC50 [1] of the same compound?
A: 1.31 µM (active)

Q: What about the AC50 [3] of the same compound?
A: 13.3 µM (active)

Q: Which IC50 (Nonstructural protein 1) does the source give for `CCOC(=O)C1=NN(c2ccccc2)C(=O)/C1=C\c1ccc(N(C)C)cc1` here?
A: > 100 µM (active)

Q: Which IC50 (Nonstructural protein 1) does the source give for `O=C(Cn1cncn1)N/N=C/c1ccccc1O` here?
A: 22.1 µM (active)

Q: With `O=S1(=O)N=C(N/N=C/c2ccccn2)c2ccccc21` as the compound, how does the IC50 (Nonstructural protein 1) read?
A: 3.27 µM (active)

Q: For `COC(=O)C1=CN(c2cccc(C)c2)C=C(C(=O)OC)C1c1cc(OC)c(O)c([N+](=O)[O-])c1`, which IC50 (Genome polyprotein) is on record?
A: 56.5 µM (active)

Q: Which AC50 (HeLa) does the source give for `CC(=O)N=C(N)Nc1nc(=O)c2ccccc2s1` here?
A: 69.2 µM (active)

Q: Which AC50 (Cytochrome P450 2C19) does the source give for `CC(=O)c1cccc(NC(=O)Cc2ccc3c(c2)CCCC3)c1` here?
A: 3.16 µM (inconclusive)

Q: And the AC50 (Cytochrome P450 2D6)?
A: 4.47 µM (inconclusive)

Q: What about the AC50 (Cytochrome P450 1A2) of the same compound?
A: 25.1 µM (inconclusive)

Q: And the AC50 (Cytochrome P450 2C9)?
A: inconclusive

Q: With `CCCCCc1cc(=O)oc2c(C(CCN(CC)CC)c3ccc(N(C)C)cc3)c(OC)cc(OC)c12` (configuration not stated) as the compound, how does the IC50 (Nonstructural protein 1) read?
A: 9.17 µM (active)

From ChEMBL document CHEMBL1201862, “PubChem BioAssay data set” (2004)
